Some test systems named below: SF-295 CNS; PC-3 prostate; HCT-15 colon; SN12C renal; MDA-N; CCRF-CEM leukemia; NCI-H460 lung; SNB-19 CNS; ACHN renal; UO-31 renal; A498 renal.
Holding throughout (test): DTP human tumour cell line panel, 48 h

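Step 1: Grow cells in 96-well plates. Step 2: Expose to compound for 48 hours at 5 concentrations. Step 3: Interpolate endpoints linearly; if unreached, use highest concentration. TGI marks complete inhibition of growth.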

In the case of `COC(=O)/C=C(\C(=O)OC)C1C(=O)Oc2c(C)c(=O)c3ccccc3n21` (centres undefined), the TGI in the assay on SF-295 CNS, with PC-3 prostate, in the assay on HCT-15 colon, in the assay on SN12C renal, in the assay with MDA-N and in the assay on CCRF-CEM leukemia was above 100 µM in each case. The TGI with NCI-H460 lung and in the assay on SNB-19 CNS was above 100 µM throughout.

As for `CC1(C)CC(=O)C(C=NC(=S)c2ccccc2)=C(O)C1`, the TGI in the assay with SF-295 CNS, in the assay on PC-3 prostate, in the assay with HCT-15 colon, in the assay on SN12C renal, in the assay on ACHN renal and with UO-31 renal was above 100 µM throughout. The TGI with MDA-N, with CCRF-CEM leukemia, with NCI-H460 lung and in the assay on SNB-19 CNS was above 100 µM each time.

With `NC(N)=NCCN1CC2CCC(CC2)C1`, the TGI with SF-295 CNS, in the assay on PC-3 prostate, in the assay with HCT-15 colon, in the assay with SN12C renal, with ACHN renal and in the assay with UO-31 renal was above 100 µM in each case. The TGI with MDA-N, in the assay with A498 renal, in the assay on NCI-H460 lung and in the assay with SNB-19 CNS was above 100 µM throughout.

On to `CN(CCSCCN(C)C(=O)OC(C)(C)C)C(=O)OC(C)(C)C`, for which the TGI in the assay with SF-295 CNS, in the assay on PC-3 prostate, with HCT-15 colon, in the assay with SN12C renal, in the assay on ACHN renal and in the assay with UO-31 renal was above 100 µM in each case. For the same compound, the TGI with MDA-N, in the assay on CCRF-CEM leukemia, in the assay on NCI-H460 lung and in the assay on SNB-19 CNS was above 100 µM throughout.

As for `CC1CC(OP(=O)(OCc2ccccc2)OCc2ccccc2)[C@@H](OCc2ccccc2)C(OCc2ccccc2)C1OCc1ccccc1` (some centres undefined), the TGI in the assay with SF-295 CNS, in the assay with PC-3 prostate, in the assay with HCT-15 colon, in the assay with SN12C renal, in the assay with ACHN renal and in the assay on UO-31 renal was above 100 µM throughout. Moreover, the TGI in the assay with MDA-N, in the assay on CCRF-CEM leukemia, in the assay with NCI-H460 lung and with SNB-19 CNS was above 100 µM each time.

As to `O=C(O)CCCc1nc2c(n1Cc1ccccc1)C(=O)c1ccccc1C2=O`, the TGI (as a rule, the concentration giving total growth inhibition) was 86.1 µM with SF-295 CNS; above 100 µM in the assay on HCT-15 colon; above 100 µM in the assay on SN12C renal; above 100 µM in the assay with ACHN renal; above 100 µM in the assay on UO-31 renal; 67.1 µM in the assay on MDA-N. Further, the TGI with A498 renal was above 100 µM; in the assay with CCRF-CEM leukemia it was 43.8 µM; with NCI-H460 lung, above 100 µM; in the assay on SNB-19 CNS, above 100 µM.

As to `O=[N+]([O-])C[C@@]12O[C@]3(O)C4C5CC(C6C5C3C61)C42` (some centres undefined), the TGI in the assay with SF-295 CNS, in the assay with PC-3 prostate, with HCT-15 colon, with SN12C renal, in the assay on ACHN renal and in the assay with UO-31 renal was above 100 µM throughout. Also, the total growth inhibition concentration (TGI) in the assay with A498 renal, with CCRF-CEM leukemia, in the assay on NCI-H460 lung and in the assay with SNB-19 CNS was above 100 µM each time.

On to `CC(=O)N=C1N(/C=C2\C(=O)Oc3ccccc3C2=O)C(=O)/C(=C/c2cccc(Cl)c2Cl)N1C`, for which the TGI in the assay with SF-295 CNS was above 100 µM; in the assay with PC-3 prostate it was above 100 µM; with HCT-15 colon, 32.5 µM; in the assay with SN12C renal, above 100 µM; in the assay with ACHN renal, 34.3 µM; with MDA-N, above 100 µM. Further, the TGI in the assay on A498 renal is 21.1 µM; with CCRF-CEM leukemia, above 100 µM.

`COc1cc(C2C3C=CC=C4CC=CC(=C43)C3CCC(=O)N32)cc(OC)c1OC` (centres undefined): the TGI with SF-295 CNS, in the assay on PC-3 prostate, with HCT-15 colon, with SN12C renal, with ACHN renal and with UO-31 renal was above 100 µM in each case. Further, the TGI with A498 renal, with NCI-H460 lung and in the assay on SNB-19 CNS was above 100 µM throughout.

For `Fc1ccc2c(c1)nc1n2C(c2c(Cl)cccc2Cl)SC1` (centres undefined), the TGI came out at 26.8 µM with SF-295 CNS; 28.3 µM in the assay with PC-3 prostate; 24.4 µM in the assay with HCT-15 colon; 31 µM in the assay with SN12C renal; 30.7 µM in the assay with ACHN renal; 28.7 µM in the assay on UO-31 renal. Further, the TGI with MDA-N was 24.5 µM; in the assay with A498 renal it was 35.4 µM; in the assay with NCI-H460 lung, 20.8 µM; in the assay on SNB-19 CNS, 27.1 µM.

For the compound `O=C1C2SC34c5c2c2ccccc2n5CCC3CCCN14` (centres undefined), the TGI in the assay with SF-295 CNS, with PC-3 prostate, in the assay with HCT-15 colon, in the assay with SN12C renal, in the assay on ACHN renal and in the assay on UO-31 renal was above 100 µM throughout. The TGI in the assay with MDA-N, in the assay on A498 renal and in the assay on SNB-19 CNS was above 100 µM each time.

For the compound `COc1cccc(CCNC(=O)Cc2ccccc2CCO)c1`, the TGI with SF-295 CNS, in the assay with PC-3 prostate, in the assay with HCT-15 colon, in the assay on SN12C renal, in the assay on ACHN renal and with UO-31 renal was above 100 µM throughout. For the same compound, the TGI in the assay on A498 renal, in the assay with CCRF-CEM leukemia, in the assay on NCI-H460 lung and in the assay with SNB-19 CNS was above 100 µM in each case.

In the case of `CC(C)(C)OC(=O)N(CCCCN(CCCNC(=O)C(F)(F)F)C(=O)OC(C)(C)C)CCCNC(=O)C(F)(F)F`, the TGI with SF-295 CNS, in the assay on PC-3 prostate, in the assay on HCT-15 colon, in the assay on SN12C renal, in the assay on ACHN renal and with UO-31 renal was above 100 µM throughout. Also, the TGI in the assay with A498 renal, with CCRF-CEM leukemia, in the assay on NCI-H460 lung and in the assay on SNB-19 CNS was above 100 µM in each case.

The values above are taken from PubChem BioAssay (NCI).
